Laboratory results reported in ChEMBL document CHEMBL1140392, “Cyclohexenyl- and dehydropiperidinyl-alkynyl pyridines as potent metabotropic glutamate subtype 5 (mGlu5) receptor antagonists” (Bioorg Med Chem Lett, 2005).

Key:
Format in all cases: ADME, organism-based
[1] = Clearance upon i.v. administration at the dose of 2 mg/kg in rat; design: dose 2 mg/kg, route intravenous; settings: in vivo, iv
[2] = Half life upon i.v. administration at the dose of 2 mg/kg in rat; design: dose 2 mg/kg, route intravenous; settings: in vivo, iv
[3] = Volume distribution upon i.v. administration at the dose of 2 mg/kg in rat; design: dose 2 mg/kg, route intravenous; settings: in vivo, iv
[4] = Peak plasma concentration in rats when administered 10 mg/kg orally; design: dose 10 mg/kg, route oral; settings: rat, po
[5] = Bioavailability in rats when administered 10 mg/kg orally; settings: rat, in vivo, po, read-out: Bioavailabiility

clearance [1] [mL/min/kg]	half-life [2] [h]	Vd ([3]; read-out: Vd) [L/kg]	Cmax [4] [nM]	bioavailability [5] [%]	Cl [1] [mL/min/kg]	T1/2 [2] [h]	Vd [3] [L/kg]	SMILES
41	0.8	1.2	–	–	–	–	–	C(#Cc1ccccn1)C1=CC(Oc2ccncc2)CCC1 (stereo not drawn)
34	0.5	1.4	–	–	–	–	–	C(#Cc1ccccn1)C1=CCC(Nc2cccnc2)CC1 (stereo not drawn)
32	4.8	7.2	–	–	–	–	–	Clc1cncc(OC2C=C(C#Cc3ccccn3)CCC2)c1 (stereo not drawn)
64	1.1	3.98	20	10	–	–	–	O=S(=O)(c1ccc(Br)cc1)N1CC=C(C#Cc2ccccn2)CC1
45	3.9	9.1	–	–	–	–	–	C(#Cc1ccccn1)C1=CCCCC1
–	–	–	–	–	29	1.5	14.7	Cc1ccc(S(=O)(=O)N2CC=C(C#Cc3ccccn3)CC2)cc1
94	0.3	2.2	–	–	–	–	–	C(#Cc1ccccn1)C1=CC(Oc2cccnc2)CCC1 (stereo not drawn)
